These results are taken from patent US20090018134A1, “Compounds - 945” (AstraZeneca AB, priority 2007, published 2009).

The assay deals with T1, mTOR (Homo sapiens, UniProt P42345).
T1 construct: FLAG; made in house
The assay can be described thus: In Vitro mTOR Kinase Assay (Echo), Test (a)(ii). The format is biochemical. The following applies: table of enzyme assay Test (a)(ii); read-out: Test (a)(ii) IC50. The essentials:
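AlphaScreen read-out: biotinylated substrate phosphorylation was detected with anti-p70 S6K (T389) 1A5 antibody, Protein A acceptor and streptavidin donor beads after overnight dark incubation at room temperature. Enzyme was FLAG-mTOR 1362-2549 from stable HEK293 cells.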

T1 sequence (P42345 1362-2549): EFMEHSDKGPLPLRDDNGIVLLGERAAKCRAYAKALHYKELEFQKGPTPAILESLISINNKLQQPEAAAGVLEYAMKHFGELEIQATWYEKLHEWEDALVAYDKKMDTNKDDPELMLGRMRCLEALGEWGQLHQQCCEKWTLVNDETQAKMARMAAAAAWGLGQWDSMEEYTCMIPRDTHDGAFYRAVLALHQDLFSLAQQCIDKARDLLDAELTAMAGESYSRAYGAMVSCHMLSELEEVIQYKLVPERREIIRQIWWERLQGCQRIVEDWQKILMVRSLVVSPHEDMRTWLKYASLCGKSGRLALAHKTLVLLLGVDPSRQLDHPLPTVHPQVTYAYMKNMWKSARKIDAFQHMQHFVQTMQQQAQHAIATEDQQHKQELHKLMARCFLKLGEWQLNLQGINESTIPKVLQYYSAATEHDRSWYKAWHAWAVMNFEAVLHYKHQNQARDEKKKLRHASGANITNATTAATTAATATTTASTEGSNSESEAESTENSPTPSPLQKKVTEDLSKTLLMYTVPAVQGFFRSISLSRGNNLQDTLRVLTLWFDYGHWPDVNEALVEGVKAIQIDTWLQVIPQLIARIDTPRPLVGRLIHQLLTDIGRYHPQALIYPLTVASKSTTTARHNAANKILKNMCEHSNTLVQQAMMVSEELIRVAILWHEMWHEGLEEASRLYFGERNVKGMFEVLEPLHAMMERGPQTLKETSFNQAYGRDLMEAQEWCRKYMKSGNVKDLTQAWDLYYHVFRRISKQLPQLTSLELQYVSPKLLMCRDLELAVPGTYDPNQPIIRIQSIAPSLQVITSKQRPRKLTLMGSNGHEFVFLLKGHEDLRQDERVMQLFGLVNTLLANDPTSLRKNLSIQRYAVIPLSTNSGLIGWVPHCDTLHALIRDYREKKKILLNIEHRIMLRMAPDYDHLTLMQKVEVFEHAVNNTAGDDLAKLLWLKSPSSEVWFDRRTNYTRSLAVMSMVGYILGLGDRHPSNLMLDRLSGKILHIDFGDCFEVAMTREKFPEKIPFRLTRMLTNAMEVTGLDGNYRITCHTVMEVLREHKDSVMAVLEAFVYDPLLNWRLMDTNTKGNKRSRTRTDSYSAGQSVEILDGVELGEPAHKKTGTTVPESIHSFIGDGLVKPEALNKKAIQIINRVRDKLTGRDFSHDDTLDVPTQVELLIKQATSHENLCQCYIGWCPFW

What is called IC50 is the concentration at which inhibition is half-maximal. For the compound `C[C@H]1COCCN1c1cc(C2(S(=O)(=O)c3ccccn3)CC2)nc(-c2ccc(NC(=O)Nc3ccccn3)cc2)n1` [Example 28b, 1-[4-[4-[(3S)-3-methylmorpholin-4-yl]-6-(1-pyridin-2-ylsulfonylcyclopropyl)pyrimidin-2-yl]phenyl]-3-pyridin-2-ylurea], the IC50 came to 1.49 nM. As for `CC(C)CNC(=O)Nc1ccc(-c2nc(N3CCOC[C@@H]3C)cc(C3(S(=O)(=O)c4ccccn4)CC3)n2)cc1` [Example 28c, 1-[4-[4-[(3S)-3-methylmorpholin-4-yl]-6-(1-pyridin-2-ylsulfonylcyclopropyl)pyrimidin-2-yl]phenyl]-3-(2-methylpropyl)urea], the IC50 stood at 8.47 nM. As for `CC(C)NC(=O)Nc1ccc(-c2nc(N3CCOC[C@@H]3C)cc(C3(S(=O)(=O)c4ccccn4)CC3)n2)cc1` [Example 28d, 1-[4-[4-[(3S)-3-methylmorpholin-4-yl]-6-(1-pyridin-2-ylsulfonylcyclopropyl)pyrimidin-2-yl]phenyl]-3-propan-2-ylurea], the IC50 was determined as 2.37 nM. On to `CNC(=O)Nc1ccc(-c2nc(N3CCOC[C@@H]3C)cc(C3(S(=O)(=O)c4ccccn4)CC3)n2)cc1` [Example 28e, 3-methyl-1-[4-[4-[(3S)-3-methylmorpholin-4-yl]-6-(1-pyridin-2-ylsulfonylcyclopropyl)pyrimidin-2-yl]phenyl]urea], for which the IC50 was 0.434 nM. For `C[C@H]1COCCN1c1cc(C2(S(=O)(=O)c3ccccn3)CC2)nc(-c2ccc(NC(=O)NCCN(C)C)cc2)n1` [Example 28f, 3-(2-dimethylaminoethyl)-1-[4-[4-[(3S)-3-methylmorpholin-4-yl]-6-(1-pyridin-2-ylsulfonylcyclopropyl)pyrimidin-2-yl]phenyl]urea], the IC50 was found to be 67.4 nM.

As to `CCCNC(=O)Nc1ccc(-c2nc(N3CCOC[C@@H]3C)cc(C3(S(=O)(=O)c4ccccn4)CC3)n2)cc1` [Example 28h, 3-[4-[4-[(3S)-3-methylmorpholin-4-yl]-6-(1-pyridin-2-ylsulfonylcyclopropyl)pyrimidin-2-yl]phenyl]-1-propylurea], the IC50 stood at 0.93 nM. On to `C[C@H]1COCCN1c1cc(C2(S(=O)(=O)c3ccccn3)CC2)nc(-c2ccc(NC(=O)Nc3ccc(C(F)(F)F)cc3)cc2)n1` [Example 28i, 1-[4-[4-[(3S)-3-methylmorpholin-4-yl]-6-(1-pyridin-2-ylsulfonylcyclopropyl)pyrimidin-2-yl]phenyl]-3-[4-(trifluoromethyl)phenyl]urea], for which the IC50 came to 1.53 nM.

With `C[C@H]1COCCN1c1cc(C2(S(=O)(=O)c3ccccn3)CC2)nc(-c2ccc(NC(=O)NC(C)(C)CO)cc2)n1` [Example 28j, 3-(1-hydroxy-2-methylpropan-2-yl)-1-[4-[4-[(3S)-3-methylmorpholin-4-yl]-6-(1-pyridin-2-ylsulfonylcyclopropyl)pyrimidin-2-yl]phenyl]urea], the IC50 is 5.57 nM. As to `C[C@H]1COCCN1c1cc(C2(S(=O)(=O)c3ccccn3)CC2)nc(-c2ccc(NC(=O)NCCCO)cc2)n1` [Example 28k, 3-(3-hydroxypropyl)-1-[4-[4-[(3S)-3-methymorpholin-4-yl]-6-(1-pyridin-2-ylsulfonylcyclopropyl)pyrimidin-2-yl]phenyl]urea], the IC50 worked out at 0.954 nM. On to `C[C@H]1COCCN1c1cc(C2(S(=O)(=O)c3ccccn3)CC2)nc(-c2ccc(NC(=O)Nc3cnn(C)c3)cc2)n1` [Example 28l, 1-[4-[4-[(3S)-3-methylmorpholin-4-yl]-6-(1-pyridin-2-ylsulfonylcyclopropyl)pyrimidin-2-yl]phenyl]-3-(1-methylpyrazol-4-yl)urea], for which the IC50 is 0.442 nM. Regarding `C[C@H]1COCCN1c1cc(C2(S(C)(=O)=O)CC2)nc(-c2ccc(NC(N)=O)cc2)n1` [Example 29, [4-[4-[(3S)-3-Methylmorpholin-4-yl]-6-(1-methylsulfonylcyclopropyl)pyrimidin-2-yl]phenyl]urea], the IC50 is 4.2 nM. In the case of `C[C@H]1COCCN1c1cc(C2(S(=O)(=O)c3cc(F)cc(F)c3)CCNCC2)nc(-c2ccc(NC(=O)NC3CC3)cc2)n1` [Example 30, 3-Cyclopropyl-1-[4-[4-[4-(3,5-difluorophenyl)sulfonylpiperidin-4-yl]-6-[(3S)-3-methylmorpholin-4-yl]pyrimidin-2-yl]phenyl]urea], the IC50 was 25 nM. On to `CC(C)NC(=O)Nc1ccc(-c2nc(N3CCOC[C@@H]3C)cc(C3(S(=O)(=O)CCCO)CC3)n2)cc1` [Example 31, 1-[4-[4-[1-(3-Hydroxypropylsulfonyl)cyclopropyl]-6-[(3S)-3-methylmorpholin-4-yl]pyrimidin-2-yl]phenyl]-3-propan-2-ylurea], for which the IC50 turned out to be 4.52 nM. For `C[C@H]1COCCN1c1cc(C2(S(=O)(=O)CCCO)CC2)nc(-c2ccc(NC(=O)NC3CCC3)cc2)n1` [Example 31b, 3-cyclobutyl-1-[4-[4-[1-(3-hydroxypropylsulfonyl)cyclopropyl]-6-[(3S)-3-methylmorpholin-4-yl]pyrimidin-2-yl]phenyl]urea], the IC50 was 4.97 nM.

In the case of `C[C@H]1COCCN1c1cc(C2(S(=O)(=O)CCCO)CC2)nc(-c2ccc(NC(=O)Nc3ccccn3)cc2)n1` [Example 31c, 1-[4-[4-[1-(3-hydroxypropylsulfonyl)cyclopropyl]-6-[(3S)-3-methylmorpholin-4-yl]pyrimidin-2-yl]phenyl]-3-pyridin-2-ylurea], the IC50 amounted to 1.31 nM. For the compound `CC(C)CNC(=O)Nc1ccc(-c2nc(N3CCOC[C@@H]3C)cc(C3(S(=O)(=O)CCCO)CC3)n2)cc1` [Example 31d, 1-[4-[4-[1-(3-hydroxypropylsulfonyl)cyclopropyl]-6-[(3S)-3-methylmorpholin-4-yl]pyrimidin-2-yl]phenyl]-3-(2-methylpropyl)urea], the IC50 came out at 9.55 nM. In the case of `CCNC(=O)Nc1ccc(-c2nc(N3CCOC[C@@H]3C)cc(C3(S(=O)(=O)CCCO)CC3)n2)cc1` [Example 31e, 1-ethyl-3-[4-[4-[1-(3-hydroxypropylsulfonyl)cyclopropyl]-6-[(3S)-3-methylmorpholin-4-yl]pyrimidin-2-yl]phenyl]urea], the 50% inhibitory concentration (IC50) is 1.07 nM.

As for `C[C@H]1COCCN1c1cc(C2(S(=O)(=O)CCCO)CC2)nc(-c2ccc(NC(=O)NCCO)cc2)n1` [Example 31f, 3-(2-hydroxyethyl)-1-[4-[4-[1-(3-hydroxypropylsulfonyl)cyclopropyl]-6-[(3S)-3-methylmorpholin-4-yl]pyrimidin-2-yl]phenyl]urea], the IC50 came out at 1.6 nM. For `CNC(=O)Nc1ccc(-c2nc(N3CCOC[C@@H]3C)cc(C3(S(=O)(=O)CCCO)CC3)n2)cc1` [Example 31g, 1-[4-[4-[1-(3-hydroxypropylsulfonyl)cyclopropyl]-6-[(3S)-3-methylmorpholin-4-yl]pyrimidin-2-yl]phenyl]-3-methylurea], the concentration for half-maximal inhibition (IC50) came out at 3.23 nM. Consider `C[C@H]1COCCN1c1cc(C2(S(=O)(=O)CCCO)CC2)nc(-c2ccc(NC(=O)Nc3ccc(C(F)(F)F)cc3)cc2)n1` [Example 31h, 1-[4-[4-[1-(3-hydroxypropylsulfonyl)cyclopropyl]-6-[(3S)-3-methylmorpholin-4-yl]pyrimidin-2-yl]phenyl]-3-[4-(trifluoromethyl)phenyl]urea], for which the IC50 is 0.209 nM. Consider `C[C@H]1COCCN1c1cc(C2(S(=O)(=O)CCCO)CC2)nc(-c2ccc(NC(=O)NCCCO)cc2)n1` [Example 31i, 3-(3-hydroxypropyl)-1-[4-[4-[1-(3-hydroxypropylsulfonyl)cyclopropyl]-6-[(3S)-3-methylmorpholin-4-yl]pyrimidin-2-yl]phenyl]urea], for which the IC50 worked out at 3.26 nM.
